Experimental data taken from patent publication US20140128352A1, “COMPOUNDS AND METHODS FOR MODULATING MITOCHONDRIAL METABOLISM AND REACTIVE OXYGEN SPECIES PRODUCTION” (Buck Institute for Research on Aging, priority 2012, published 2014).
“Also recorded” adds a separate entry of the source. Read-outs that look alike come from different tables or passages of the source.

Legend:
[1] = system: ubiquinone binding site of complex I (IQ); assay: High-throughput screen: ROS production from ubiquinone binding site of complex I (IQ), isolated skeletal muscle mitochondria; format: biochemical, rat; conditions: percent change in ROS from DMSO controls
Protocol: Skeletal muscle mitochondria were isolated from 5-8 week old female Wistar rats (Harlan Laboratories). Minced muscle was homogenized in buffer containing bacterial protease Type VIII prior to differential centrifugation to separate mitochondria from other tissue components. Unless otherwise stated, freshly isolated muscle mitochondria were assayed in buffer containing 120 mM KCl, 5 mM HEPES, 1 mM EGTA, 0.3% (w/v) bovine serum albumin. Where indicated, CaCl2 was added to yield a final free concentration of 250 nM calcium at pH 7.0 at 37° C.
Compounds (10 mM in DMSO) were randomly selected from a library of 24,000 compounds obtained from ChemBridge and curated by the lab of Robert Hughes at the Buck Institute. Master screening plates were prepared using a Biomek FX liquid handling workstation (Beckman) to transfer 1 μL of each compound into individual wells on 96-well storage plates (80 compounds per plate). Master plates were sealed with foil and stored at −80° C. Just prior to use, plates were brought to room temperature and diluted 300-fold with standard buffer (13.3X=33.3 μM). To monitor the performance of each assay throughout screening and to provide intra-plate normalization reference points, DMSO negative controls and known mitochondrial inhibitor positive controls were included on each Master compound plate.
Total amounts of superoxide and H2O2 production were determined fluorometrically as H2O2, without distinguishing between them, in the presence of exogenous superoxide dismutase (25 units/mL final), horseradish peroxidase (1 unit/mL final), and Amplex UltraRed (25 μM final) as described (Affourtit, C. et al. (2012) Measurement of proton leak and electron leak in isolated mitochondria. Methods Mol. Biol. 810: 165-82). Just prior to use, a bulk 3.3X solution was made in standard buffer and distributed into a 2 mL deep well 96-well transfer plate.
To assess the effects of a compound on ROS production from the ubiquinone binding site of complex I (IQ), Start Solution containing 5 mM succinate was distributed into standard 96-well transfer plates. A Biomek FX workstation was programmed to dispense solutions into black 96-well assay plates. Solutions were dispensed to all assay plates in the following order: ROS Detection solution described in Example 3, Mitochondria solution described in Example 1 to a final concentration of 0.1 mg/ml, and Compound dilutions described in Example 2. Duplicate assay plates were made and each was initiated by the addition of 3.3X Start solution containing 5 mM succinate. Plates were incubated in the dark at room temperature for 30-40 minutes before acquiring endpoint fluorescence using a Victor 3V plate reader (Perkin Elmer) equipped with 550/590 nm excitation/emission filters.
The fluorescence values in each well were scaled as the percent change from the intra-plate DMSO controls with the appropriate inhibitor positive controls defined as −100%. Following initial scaling, intra-plate normalized values were subjected to Tukey's two-way median polish to remove row and column dependent positional effects (Malo et al, 2006).

[2] = molecular target: T1, flavin binding site of complex I (IF) (Rattus norvegicus, UniProt Q5XIH3); assay: High-throughput screen: ROS production from flavin binding site of complex I (IF); format: biochemical
T1 construct: freshly isolated muscle mitochondria were assayed; from tissue; host or cells: rat skeletal muscle mitochondria (Wistar, Harlan Laboratories)
T1 sequence (Q5XIH3 21-464 limits assumed, one chain of several): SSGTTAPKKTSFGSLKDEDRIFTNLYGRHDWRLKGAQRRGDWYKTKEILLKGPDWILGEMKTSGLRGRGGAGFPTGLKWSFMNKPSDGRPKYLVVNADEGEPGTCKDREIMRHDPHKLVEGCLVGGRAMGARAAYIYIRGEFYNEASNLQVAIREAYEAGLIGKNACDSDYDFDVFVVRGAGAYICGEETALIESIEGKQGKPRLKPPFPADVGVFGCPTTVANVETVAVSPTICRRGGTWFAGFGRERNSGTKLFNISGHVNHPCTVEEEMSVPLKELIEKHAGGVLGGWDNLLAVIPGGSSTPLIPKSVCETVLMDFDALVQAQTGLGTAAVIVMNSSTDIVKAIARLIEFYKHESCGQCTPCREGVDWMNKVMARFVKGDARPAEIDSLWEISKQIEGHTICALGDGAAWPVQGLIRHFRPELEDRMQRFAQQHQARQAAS

[3] = molecular target: T2, outer ubiquinone binding site of complex III (IIIQO) (Rattus norvegicus, UniProt P00159+P20788); assay: High-throughput screen: ROS production from outer ubiquinone binding site of complex III (IIIQO); format: biochemical; conditions: for IIIQO: Table 8
T2 construct: freshly isolated muscle mitochondria were assayed; from tissue; host or cells: rat skeletal muscle mitochondria (Wistar, Harlan Laboratories)

[4] = molecular target: T3, succinate dehydrogenase/complex II (SDH) (Rattus norvegicus, UniProt P21913+Q641Z9+Q6PCT8+Q920L2); assay: High-throughput screen: ROS production from succinate dehydrogenase/complex II (SDH); format: biochemical; conditions: percent change in ROS from DMSO controls; for inhibition at 2.5 µM: Table 7
T3 construct: freshly isolated muscle mitochondria were assayed; from tissue; host or cells: rat skeletal muscle mitochondria (Wistar, Harlan Laboratories)
T3 sequence (Q920L2 35-656): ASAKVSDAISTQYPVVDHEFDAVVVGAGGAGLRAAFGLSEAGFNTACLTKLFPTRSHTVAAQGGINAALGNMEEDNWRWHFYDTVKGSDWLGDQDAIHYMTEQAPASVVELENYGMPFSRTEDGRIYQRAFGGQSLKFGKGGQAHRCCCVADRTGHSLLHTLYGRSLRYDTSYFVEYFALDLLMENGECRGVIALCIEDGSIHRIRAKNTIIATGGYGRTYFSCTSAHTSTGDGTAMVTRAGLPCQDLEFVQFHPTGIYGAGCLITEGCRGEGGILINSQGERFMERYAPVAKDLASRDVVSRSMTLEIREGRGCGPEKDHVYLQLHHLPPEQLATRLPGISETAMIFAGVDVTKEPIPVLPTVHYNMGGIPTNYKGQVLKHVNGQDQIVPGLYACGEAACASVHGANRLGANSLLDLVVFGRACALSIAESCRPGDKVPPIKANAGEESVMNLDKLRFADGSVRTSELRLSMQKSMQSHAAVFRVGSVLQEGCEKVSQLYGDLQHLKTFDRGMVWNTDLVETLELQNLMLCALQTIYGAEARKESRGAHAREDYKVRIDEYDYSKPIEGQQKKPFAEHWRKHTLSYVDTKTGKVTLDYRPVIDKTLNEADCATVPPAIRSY
T3 sequence (P21913 31-282): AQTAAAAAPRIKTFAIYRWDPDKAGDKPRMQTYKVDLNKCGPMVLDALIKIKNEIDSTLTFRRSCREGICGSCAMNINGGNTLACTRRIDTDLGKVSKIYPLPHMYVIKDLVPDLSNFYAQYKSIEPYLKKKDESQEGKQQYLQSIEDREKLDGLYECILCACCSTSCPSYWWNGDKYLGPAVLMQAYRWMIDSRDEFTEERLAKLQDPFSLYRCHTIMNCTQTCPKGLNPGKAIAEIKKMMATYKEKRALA
T3 sequence (Q641Z9 30-169 limits assumed): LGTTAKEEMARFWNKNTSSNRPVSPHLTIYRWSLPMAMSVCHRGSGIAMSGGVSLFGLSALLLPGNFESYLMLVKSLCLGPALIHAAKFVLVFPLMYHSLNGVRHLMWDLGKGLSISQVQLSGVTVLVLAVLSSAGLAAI
T3 sequence (Q6PCT8 57-159): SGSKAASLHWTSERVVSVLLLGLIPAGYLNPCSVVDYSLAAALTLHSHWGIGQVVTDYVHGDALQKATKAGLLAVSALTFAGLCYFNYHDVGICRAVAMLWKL

[5] = molecular target: T4, glycerol-3-phosphate dehydrogenase (GPDH) (Rattus norvegicus, UniProt P35571); assay: High-throughput screen: ROS production from glycerol-3-phosphate dehydrogenase (GPDH); format: biochemical; set-up: inhibition: dose or concentration left out as unconfirmed
T4 construct: The activity of GPDH in intact mitochondria (0.3 mg/mL) was measured; from tissue; host or cells: rat skeletal muscle mitochondria (Wistar, Harlan Laboratories)
T4 sequence (P35571 43-727): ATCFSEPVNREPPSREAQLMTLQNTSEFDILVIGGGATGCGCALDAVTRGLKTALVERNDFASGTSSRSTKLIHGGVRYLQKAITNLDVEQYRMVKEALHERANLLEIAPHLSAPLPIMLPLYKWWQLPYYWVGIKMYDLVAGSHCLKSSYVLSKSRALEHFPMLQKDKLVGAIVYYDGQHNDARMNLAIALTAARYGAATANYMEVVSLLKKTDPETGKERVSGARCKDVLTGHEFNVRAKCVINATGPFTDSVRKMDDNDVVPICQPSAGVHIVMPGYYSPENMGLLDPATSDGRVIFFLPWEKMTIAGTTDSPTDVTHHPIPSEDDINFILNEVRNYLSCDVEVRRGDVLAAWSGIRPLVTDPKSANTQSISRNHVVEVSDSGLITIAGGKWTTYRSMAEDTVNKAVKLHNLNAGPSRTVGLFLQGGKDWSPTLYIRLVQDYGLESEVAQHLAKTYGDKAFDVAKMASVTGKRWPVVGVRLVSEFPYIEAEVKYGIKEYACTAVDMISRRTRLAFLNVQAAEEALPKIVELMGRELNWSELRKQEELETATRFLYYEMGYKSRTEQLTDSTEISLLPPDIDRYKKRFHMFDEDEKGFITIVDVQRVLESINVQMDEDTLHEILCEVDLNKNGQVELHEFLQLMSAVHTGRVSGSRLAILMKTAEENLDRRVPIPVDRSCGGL

site IQ = assay: Retest of IQ ROS production (expanded microplate panel / cuvette); format: biochemical, rat; conditions: retest; subsaturating (0.5 mM) succinate
Protocol: (§1) Compounds identified as site-selective hits as well as structural analogs were re-sourced from ChemBridge and dissolved in DMSO as 80 mM stocks. Master Titration Plates were prepared manually by serially diluting 80 mM compound stocks between 0.08 and 80 mM on 96-well microplates. Four compounds were titrated in duplicate on each plate. Additional DMSO controls were interspersed across these plates to serve as local normalization controls during analysis since two-way median polishing was not appropriate. Just prior to use, compounds were diluted 100-fold with standard buffer (10X). The same known inhibitor positive controls were included on each plate as during high-throughput screening.
(§2) The five core ROS assays and single ΔΨm assay were carried out as in the initial high-throughput screen. In addition, several assays were included to help validate the specificity of the compounds for a given site of production. All compounds were titrated against separate assays targeting IQ ROS and IIIQo ROS using subsaturating (0.5 mM final) succinate. […] Specifically, ΔΨm was monitored separately with 5 mM succinate (in the presence of 4 μM rotenone) in addition to glutamate and malate as before. The use of different substrates was designed to reveal compounds that disrupt mitochondrial function in a substrate specific manner.
Most frequently, these changes involved the use of different substrates to supply electrons from an alternative entry point in the chain. If a site of ROS production is being targeted selectively by a compound, then in many cases the supply of electrons should not influence the effectiveness of this compound at suppressing ROS production. […] Alternative conditions are listed below: • 1) IQ ROS: 5 mM succinate with 1 mM glutamate • 2) IF ROS: 5 mM malate only as substrate (in the presence of 4 μM rotenone) • 3) IIIQo ROS: 5 mM succinate (in the presence of 3 mM malonate, 4 uM rotenone, and 2.5 μM antimycin A) • 4) IIIQo ROS: 25 mM glycerol phosphate (in the presence of 1 mM malonate, 4 μM rotenone, and 2.5 μM antimycin A) • 5) SDH: 0.5 mM succinate (in the presence of 4 uM rotenone, 2.5 uM antimycin A, and 2 μM myxothiazol) • 6) GPDH: Vary the concentration of glycerol phosphate in the presence or absence of 250 nM free calcium to allosterically activate GPDH (all in the presence of 4 μM rotenone, 2.5 uM antimycin A, 1 mM malonate, and 2 μM myxothiazol) • 7) ΔΨm: Vary the concentration of glycerol phosphate in the presence or absence of 250 nM free calcium to allosterically activate GPDH and in the presence or absence of 80 ng/mL nigericin (all in the presence of 4 μM rotenone)
The fluorescence values in each well were scaled in relation to the intra-plate DMSO and known inhibitor controls as in the high-throughput screen except that median values for local interspersed DMSO wells (3-6 wells) were used rather than just the 8 DMSO wells in columns 1 and 12. This normalization was applied in place of the two-way median polish used during high-throughput screening to minimize row and column effects. […] At this stage, strong candidates were not necessarily excluded from further testing if subtle off-target effects were observed (e.g. loss of specificity or signs of general inhibition at the highest concentrations). Rather, these candidates were often pursued for more detailed mechanistic studies with the expectation that subsequent structure activity analysis would provide insight into which structurally related compounds would provide the optimal specificity for a given site of production.
Candidate compounds that remained site-selective following robotics assisted retesting were subsequently tested for effects on ROS production and ΔΨm with a Varian Cary Eclipse fluorimeter (excitation 550 nm, emission at 590 nm). This experimental format allows kinetic measurements of ROS production and ΔΨm with more accurate temperature control, sample stirring, and background correction. […]

[6] = system: mitochondrial membrane potential (ΔΨm); assay: Membrane potential (ΔΨm) counterscreen with TMRM; conditions: malate, nigericin
site IF = molecular target: T5, site IF (Rattus norvegicus, UniProt Q5XIH3); assay: Retest of IF ROS production (expanded microplate panel); format: biochemical
T5 construct: freshly isolated muscle mitochondria were assayed; from tissue; host or cells: rat skeletal muscle mitochondria (Wistar, Harlan Laboratories)
T5 sequence (Q5XIH3 21-464 limits assumed): as the sequence (Q5XIH3 21-464 limits assumed, one chain of several) above
Protocol: Compounds identified as site-selective hits as well as structural analogs were re-sourced from ChemBridge and dissolved in DMSO as 80 mM stocks. Master Titration Plates were prepared manually by serially diluting 80 mM compound stocks between 0.08 and 80 mM on 96-well microplates. Four compounds were titrated in duplicate on each plate. Additional DMSO controls were interspersed across these plates to serve as local normalization controls during analysis since two-way median polishing was not appropriate. Just prior to use, compounds were diluted 100-fold with standard buffer (10X). The same known inhibitor positive controls were included on each plate as during high-throughput screening. The five core ROS assays and single ΔΨm assay were carried out as in the initial high-throughput screen. In addition, several assays were included to help validate the specificity of the compounds for a given site of production. […] The use of different substrates was designed to reveal compounds that disrupt mitochondrial function in a substrate specific manner. […] Most frequently, these changes involved the use of different substrates to supply electrons from an alternative entry point in the chain. If a site of ROS production is being targeted selectively by a compound, then in many cases the supply of electrons should not influence the effectiveness of this compound at suppressing ROS production. […] The fluorescence values in each well were scaled in relation to the intra-plate DMSO and known inhibitor controls as in the high-throughput screen except that median values for local interspersed DMSO wells (3-6 wells) were used rather than just the 8 DMSO wells in columns 1 and 12. This normalization was applied in place of the two-way median polish used during high-throughput screening to minimize row and column effects. […] At this stage, strong candidates were not necessarily excluded from further testing if subtle off-target effects were observed (e.g. loss of specificity or signs of general inhibition at the highest concentrations). Rather, these candidates were often pursued for more detailed mechanistic studies with the expectation that subsequent structure activity analysis would provide insight into which structurally related compounds would provide the optimal specificity for a given site of production.

GPDH = molecular target: T6, GPDH (Rattus norvegicus, UniProt P35571); assay: Retest of GPDH ROS production (expanded microplate panel / cuvette); format: biochemical; conditions: microplate or cuvette
T6 construct: from tissue; host or cells: rat skeletal muscle mitochondria (Wistar, Harlan Laboratories)
T6 sequence (P35571 43-727): T4 sequence (P35571 43-727)
Protocol: as §1, §2
Most frequently, these changes involved the use of different substrates to supply electrons from an alternative entry point in the chain. If a site of ROS production is being targeted selectively by a compound, then in many cases the supply of electrons should not influence the effectiveness of this compound at suppressing ROS production. […]
The fluorescence values in each well were scaled in relation to the intra-plate DMSO and known inhibitor controls as in the high-throughput screen except that median values for local interspersed DMSO wells (3-6 wells) were used rather than just the 8 DMSO wells in columns 1 and 12. […]

[7] = Table 3, 5 mM glutamate, 5 mM malate, 4 μM rotenone, compounds 2.5 μM, percent change from DMSO, positive control −100%, read-out: % Reduction in ROS production (IF)
[8] = Table 7, percent change in ROS from DMSO controls, read-out: IF
[9] = Table 8, percent change in ROS from DMSO controls
[10] = Table 9, percent change in ROS from DMSO controls
[11] = Table 7, percent change in ROS from DMSO controls, read-out: IIIQO
[12] = percent change in ROS from DMSO controls
[13] = Table 9, percent change in ROS from DMSO controls, read-out: IIIQo
[14] = Table 7, percent change in ROS from DMSO controls

Structure (SMILES)	IQ ([1]; Table 7)	IQ ([1]; Table 8)	IQ ([1]; Table 9)	inhibition at 2.5 µM [2, 7] [%]	inhibition at 2.5 µM [2, 8] [%]	IF [2, 9]	IF [2, 10]	inhibition at 2.5 µM [3, 11] [%]	IIIQO [3, 12]	inhibition at 2.5 µM [3, 13] [%]	inhibition at 2.5 µM [4] [%]	SDH ([4]; Table 8)	SDH ([4]; Table 9)	inhibition [5, 14] [%]	GPDH [5, 9]	GPDH [5, 10]	ΔΨm ([6]; Table 8, glutamate)	ΔΨm ([6]; Table 9, glutamate)	further results
CN(C)CCN(Cc1ccccc1)Cc1ccc(C(F)(F)F)cc1 [Compound 29]	−2.1	−2.1	−2.1	18.1	18.1	−18.1	−18.1	3.2	−3.2	3.2	0.1	−0.1	−0.1	2.4	−2.4	−2.4	−0.6	−0.6	effect on IQ ROS with subsaturating substrate (site IQ): strong effects on IQ ROS with subsaturating substrate; also recorded: stronger off-target effects on IQ ROS when driven by low concentration succinate
CN(C)CCCN(CCCN(C)C)Cc1cccnc1 [Compound 33]	−0.5	−0.5	−0.5	3	3	−3.0	−3.0	-6.1	6.1	-6.1	–	–	–	12.7	−12.7	−12.7	0.4	0.4	effect on IF ROS and selectivity for site IF (site IF): further improved selectivity for IF without compromising ΔΨm
O=C(O)C1CCCCC1C(=O)NC1CCCCCCC1 (stereo not shown) [Compound 30]	−0.7	−0.7	−0.7	36.9	36.9	−36.9	−36.9	-0.1	0.1	-0.1	-3.3	3.3	3.3	-0.7	0.7	0.7	−1.0	−1.0	inhibition at 2.5 µM (site IF; 2.5 μM): 37%
COc1ccc(/C=C2\C(=O)NC(=S)N(c3ccccc3)C2=O)cc1Br [Compound 52]	−0.2	–	–	–	2.2	–	–	–	–	–	-4.6	–	–	–	–	–	–	–	inhibition at 2.5 µM ([3]; read-out: IIIQO): 0.4%; inhibition at 2.5 µM ([5]; Table 7, percent change in ROS from DMSO controls, read-out: GPDH): 0%; inhibition at 2.5 µM ([5]; read-out: % Reduction in ROS Production (GPDH)): 14.6%; effect on GPDH ROS on retesting (GPDH): did not show any effect on GPDH when retested
